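Five compound concentrations were applied to cells in 96-well plates for 48 hours; endpoints were derived by simple linear interpolation of the resulting dose-response curve. At the GI50, growth is halved. TGI: total growth inhibition.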

One experiment has as its system MCF7 breast. Nature of the experiment: growth of human tumour cells (NCI), 48 h.
For the molecule `ClCc1ccccc1CSc1ncnc2nc[nH]c12`, the GI50 is 53 µM and the TGI was over 60 µM.
The corresponding values for `CC1=C2[C@@H](CC1)[C@]1(C)O[C@@](C(C)C)(C[C@H]1OC(=O)[C@H](C)O)[C@H]2OC(=O)/C=C/c1ccccc1` are 8.15 µM and 23.5 µM.
`CN(C)c1ccc2c(c1)oc(=O)c1ccccc12` displayed a TGI of 17.1 µM.
The same measure, in the same setting: to `O=C(O)Cc1c[nH]c2ccc(F)cc12` belongs over 100 µM.
Take `CN1CCN(Cc2ccc(NC(=O)c3cncc(C#Cc4cnc(N)c5ccccc45)c3)cc2C(F)(F)F)CC1`: the GI50 was 0.371 µM and the TGI was found to be 0.892 µM.
For `NS(=O)(=O)c1ccc(-n2nc(-c3ccc(Br)cc3)ccc2=O)cc1`, in that order: over 10 µM and over 10 µM.
`S=C1NCCN1C1=Nc2ccccc2CO1`: the GI50 is over 100 µM and the TGI is over 100 µM.
Regarding `COc1ccc(-n2cc(-c3ccc(OC)c(OC)c3)[nH]c2=S)cc1Cl`, the GI50 was over 100 µM and the TGI was over 100 µM.
For `CN(C)S(=O)(=O)Nc1ccccn1`, the TGI is over 100 µM.
As for `COc1nc2c(cc1S(=O)(=O)c1ccccc1)CCc1c-2cnn1-c1ccccc1Cl`, the GI50 is 4.13 µM and the TGI is over 100 µM.

The subject of the next experiment is NCI/ADR-RES ovarian. Briefly: growth of human tumour cells (NCI), 48 h.
As for `CC[n+]1ccc2c(c1)C(=O)c1nccc3c1c-2nc1ccccc13`, the GI50 was over 27.7 µM and the TGI was over 33.3 µM.
The corresponding values for `CCCCCCCCCCCCOC1C(CNCC2OC3OC(C)(C)OC3C2NC(=O)Nc2ccc(C(=O)OCC)cc2)OC2OC(C)(C)OC21` (stereo not drawn) are 2.19 µM and 4.35 µM.
Regarding `NNC(=O)c1cnn(-c2ccnc3c(C(F)(F)F)cccc23)c1N`, the GI50 was over 100 µM and the TGI was over 100 µM.
For the molecule `Cc1c(Cl)cccc1Nc1ncccc1C(=O)O`, the GI50 was 78.7 µM and the TGI was over 100 µM.
Take `COc1cc2c(NCCCCCCO[N+](=O)[O-])ncnc2c(OC)c1OC`: the TGI was determined as 51.3 µM.
For the molecule `COc1ccc(CNC(=O)COc2ccc(/C=N/Nc3nc4ccccc4s3)cc2)cc1`, the GI50 is 3.12 µM and the TGI amounted to 19.4 µM.
For `CC1=C(CCCOC(=O)NCCCl)C2=C(C)C3(CC3)[C@@](C)(O)C(=O)C2=C1`, in that order: 2.95 µM and over 100 µM.
Turning to `N#Cc1cnn2ccn(C3OC(COC(=O)c4ccccc4)C(OC(=O)c4ccccc4)C3OC(=O)c3ccccc3)c12` (stereo not drawn), the TGI was over 21.5 µM.
Turning to `OC(c1cccc(C(F)(F)F)c1)c1cnccc1NC1CCCCCC1` (stereo not drawn), the GI50 is 1.85 µM and the TGI came to 4.18 µM.
Turning to `N#Cc1c(O)c2c(c(O)c1C#N)C(=O)c1ccccc1C2=O`, the GI50 was 2.12 µM and the TGI amounted to 7.25 µM.
In the case of `CN=C1NC(=O)/C(=C/c2ccc3ncccc3c2)S1`, the GI50 is 13.9 µM and the TGI is over 25 µM.
`O=C(O)/C=C/C(=O)Nc1ncn[nH]1` came in with a TGI of over 100 µM.
`CCCNC(=O)OCc1c(COC(=O)NCCC)c(-c2ccc(Cl)c(Cl)c2)n2c1CCC2` displayed a TGI of 17.4 µM.
`COC(=O)[C@@H](C)C[C@H](Cc1ccccc1)NC(=O)c1nc([C@@H](C[C@H](C(C)C)N(C)C(=O)[C@@H](NC(=O)[C@H]2CCCN2C)C(C)C)OC(C)=O)sc1C`: the GI50 is 0.235 µM and the TGI is over 25 µM.
The corresponding values for `ClCc1ccccc1CSc1ncnc2nc[nH]c12` are over 60 µM and over 60 µM.
For `CC1=C2[C@@H](CC1)[C@]1(C)O[C@@](C(C)C)(C[C@H]1OC(=O)[C@H](C)O)[C@H]2OC(=O)/C=C/c1ccccc1`, in that order: 0.428 µM and 16 µM.
On to `CN(C)c1ccc2c(c1)oc(=O)c1ccccc12`, for which the TGI came out at 44.9 µM.
The same measure, in the same setting: to `O=C(O)Cc1c[nH]c2ccc(F)cc12` belongs over 100 µM.
For `CN1CCN(Cc2ccc(NC(=O)c3cncc(C#Cc4cnc(N)c5ccccc45)c3)cc2C(F)(F)F)CC1`, the GI50 was 0.556 µM and the TGI was 1.21 µM.
Take `NS(=O)(=O)c1ccc(-n2nc(-c3ccc(Br)cc3)ccc2=O)cc1`: the GI50 was over 10 µM and the TGI was over 10 µM.
As to `S=C1NCCN1C1=Nc2ccccc2CO1`, the GI50 is over 100 µM and the TGI was over 100 µM.
Consider `COc1ccc(-n2cc(-c3ccc(OC)c(OC)c3)[nH]c2=S)cc1Cl`, for which the GI50 is over 100 µM and the TGI was over 100 µM.
`CN(C)S(=O)(=O)Nc1ccccn1` gave a TGI of over 100 µM.
For the molecule `COc1nc2c(cc1S(=O)(=O)c1ccccc1)CCc1c-2cnn1-c1ccccc1Cl`, the GI50 was 8.24 µM and the TGI is over 100 µM.

A further experiment has as its system DU-145 prostate. Briefly: growth of human tumour cells (NCI), 48 h.
Take `CC[n+]1ccc2c(c1)C(=O)c1nccc3c1c-2nc1ccccc13`: the GI50 was 1.03 µM and the TGI amounted to 4.31 µM.
With `CCCCCCCCCCCCOC1C(CNCC2OC3OC(C)(C)OC3C2NC(=O)Nc2ccc(C(=O)OCC)cc2)OC2OC(C)(C)OC21` (stereo not drawn), the GI50 was 1.89 µM and the TGI was 3.73 µM.
The corresponding values for `NNC(=O)c1cnn(-c2ccnc3c(C(F)(F)F)cccc23)c1N` are over 100 µM and over 100 µM.
The corresponding values for `Cc1c(Cl)cccc1Nc1ncccc1C(=O)O` are over 100 µM and over 100 µM.
Regarding `COc1cc2c(NCCCCCCO[N+](=O)[O-])ncnc2c(OC)c1OC`, the TGI is 72.2 µM.
For the molecule `COc1ccc(CNC(=O)COc2ccc(/C=N/Nc3nc4ccccc4s3)cc2)cc1`, the GI50 was 3.8 µM and the TGI is over 100 µM.
Regarding `CC1=C(CCCOC(=O)NCCCl)C2=C(C)C3(CC3)[C@@](C)(O)C(=O)C2=C1`, the GI50 is 1.14 µM and the TGI is over 100 µM.
`N#Cc1cnn2ccn(C3OC(COC(=O)c4ccccc4)C(OC(=O)c4ccccc4)C3OC(=O)c3ccccc3)c12` (stereo not drawn): the TGI is over 21.5 µM.
`OC(c1cccc(C(F)(F)F)c1)c1cnccc1NC1CCCCCC1` (stereo not drawn): the GI50 was 2.77 µM and the TGI turned out to be 7.53 µM.
For `N#Cc1c(O)c2c(c(O)c1C#N)C(=O)c1ccccc1C2=O`, in that order: 1.19 µM and 2.5 µM.
For the molecule `CN=C1NC(=O)/C(=C/c2ccc3ncccc3c2)S1`, the GI50 is 5.78 µM and the TGI was over 25 µM.
For `O=C(O)/C=C/C(=O)Nc1ncn[nH]1`, the TGI is over 100 µM.
Take `CCCNC(=O)OCc1c(COC(=O)NCCC)c(-c2ccc(Cl)c(Cl)c2)n2c1CCC2`: the TGI is over 100 µM.
With `COC(=O)[C@@H](C)C[C@H](Cc1ccccc1)NC(=O)c1nc([C@@H](C[C@H](C(C)C)N(C)C(=O)[C@@H](NC(=O)[C@H]2CCCN2C)C(C)C)OC(C)=O)sc1C`, the GI50 was under 0.0025 µM and the TGI was over 25 µM.
Regarding `ClCc1ccccc1CSc1ncnc2nc[nH]c12`, the GI50 was over 60 µM and the TGI was over 60 µM.
On to `CC1=C2[C@@H](CC1)[C@]1(C)O[C@@](C(C)C)(C[C@H]1OC(=O)[C@H](C)O)[C@H]2OC(=O)/C=C/c1ccccc1`, for which the GI50 was 15.9 µM and the TGI was 31.9 µM.
`CN(C)c1ccc2c(c1)oc(=O)c1ccccc12`: the TGI was 23 µM.
Take `O=C(O)Cc1c[nH]c2ccc(F)cc12`: the TGI is over 100 µM.
Turning to `CN1CCN(Cc2ccc(NC(=O)c3cncc(C#Cc4cnc(N)c5ccccc45)c3)cc2C(F)(F)F)CC1`, the GI50 is 0.213 µM and the TGI came out at 0.678 µM.
The corresponding values for `NS(=O)(=O)c1ccc(-n2nc(-c3ccc(Br)cc3)ccc2=O)cc1` are over 10 µM and over 10 µM.
For `S=C1NCCN1C1=Nc2ccccc2CO1`, in that order: over 100 µM and over 100 µM.
The corresponding values for `COc1ccc(-n2cc(-c3ccc(OC)c(OC)c3)[nH]c2=S)cc1Cl` are over 100 µM and over 100 µM.
`CN(C)S(=O)(=O)Nc1ccccn1` yielded a TGI of over 100 µM.
On to `COc1nc2c(cc1S(=O)(=O)c1ccccc1)CCc1c-2cnn1-c1ccccc1Cl`, for which the GI50 was over 100 µM and the TGI is over 100 µM.

Another experiment has as its system BT-549 breast. Briefly: growth of human tumour cells (NCI), 48 h.
On to `CC[n+]1ccc2c(c1)C(=O)c1nccc3c1c-2nc1ccccc13`, for which the GI50 was 0.832 µM and the TGI amounted to 3.12 µM.
`CCCCCCCCCCCCOC1C(CNCC2OC3OC(C)(C)OC3C2NC(=O)Nc2ccc(C(=O)OCC)cc2)OC2OC(C)(C)OC21` (stereo not drawn): the GI50 is 5.44 µM and the TGI is 19.8 µM.
The corresponding values for `NNC(=O)c1cnn(-c2ccnc3c(C(F)(F)F)cccc23)c1N` are over 100 µM and over 100 µM.
For `Cc1c(Cl)cccc1Nc1ncccc1C(=O)O`, in that order: 61.2 µM and over 100 µM.
In turn, `COc1cc2c(NCCCCCCO[N+](=O)[O-])ncnc2c(OC)c1OC` gave a TGI of 56 µM.
As to `COc1ccc(CNC(=O)COc2ccc(/C=N/Nc3nc4ccccc4s3)cc2)cc1`, the GI50 was 1.61 µM and the TGI was found to be 3.41 µM.
For `CC1=C(CCCOC(=O)NCCCl)C2=C(C)C3(CC3)[C@@](C)(O)C(=O)C2=C1`, in that order: 2.08 µM and 6.66 µM.
As for `N#Cc1cnn2ccn(C3OC(COC(=O)c4ccccc4)C(OC(=O)c4ccccc4)C3OC(=O)c3ccccc3)c12` (stereo not drawn), the TGI was over 100 µM.
For the molecule `OC(c1cccc(C(F)(F)F)c1)c1cnccc1NC1CCCCCC1` (stereo not drawn), the GI50 is 2.13 µM and the TGI worked out at 5.47 µM.
For `N#Cc1c(O)c2c(c(O)c1C#N)C(=O)c1ccccc1C2=O`, in that order: 3.77 µM and 14.9 µM.
For `CN=C1NC(=O)/C(=C/c2ccc3ncccc3c2)S1`, in that order: 6.12 µM and over 23 µM.
Take `O=C(O)/C=C/C(=O)Nc1ncn[nH]1`: the TGI was over 100 µM.
On the same count and under the same terms, in the case of `CCCNC(=O)OCc1c(COC(=O)NCCC)c(-c2ccc(Cl)c(Cl)c2)n2c1CCC2` it was 15.9 µM.
On to `COC(=O)[C@@H](C)C[C@H](Cc1ccccc1)NC(=O)c1nc([C@@H](C[C@H](C(C)C)N(C)C(=O)[C@@H](NC(=O)[C@H]2CCCN2C)C(C)C)OC(C)=O)sc1C`, for which the GI50 is under 0.0025 µM and the TGI worked out at 0.145 µM.
With `ClCc1ccccc1CSc1ncnc2nc[nH]c12`, the GI50 was over 60 µM and the TGI was over 60 µM.
Consider `CC1=C2[C@@H](CC1)[C@]1(C)O[C@@](C(C)C)(C[C@H]1OC(=O)[C@H](C)O)[C@H]2OC(=O)/C=C/c1ccccc1`, for which the GI50 was 0.888 µM and the TGI came to 15.7 µM.
With `CN(C)c1ccc2c(c1)oc(=O)c1ccccc12`, the TGI worked out at 17.1 µM.
The same measure, in the same setting: to `O=C(O)Cc1c[nH]c2ccc(F)cc12` belongs over 100 µM.
For the molecule `CN1CCN(Cc2ccc(NC(=O)c3cncc(C#Cc4cnc(N)c5ccccc45)c3)cc2C(F)(F)F)CC1`, the GI50 was 1.57 µM and the TGI was found to be 5.8 µM.
The corresponding values for `NS(=O)(=O)c1ccc(-n2nc(-c3ccc(Br)cc3)ccc2=O)cc1` are over 10 µM and over 10 µM.
The corresponding values for `S=C1NCCN1C1=Nc2ccccc2CO1` are over 100 µM and over 100 µM.
As for `CN(C)S(=O)(=O)Nc1ccccn1`, the TGI is over 100 µM.
`COc1nc2c(cc1S(=O)(=O)c1ccccc1)CCc1c-2cnn1-c1ccccc1Cl`: the GI50 is 3.49 µM and the TGI was over 100 µM.
